Assay [1] deals with HEp-2. Briefly: Antiproliferative activity against human Hep2 cells after 72 hrs by MTT method. The class given is functional, cell-based. The settings on record: HEp-2, 72 h. For orientation: Tetrazolium dyes change colour on reduction, which living cells bring about.
The next assay concerns SW480. The assay is described as follows: Antiproliferative activity against human SW480 cells after 72 hrs by MTT method. The settings on record: SW480, 72 h. The class given is functional, cell-based.
The nature of the next assay: cells. It is filed as functional, cell-based. Conditions: Homo sapiens, MDA-MB-435S, 72 h.
A short description of assay [2]: Antiproliferative activity against human HCCLM7 cells after 72 hrs by MTT method. It is filed as functional, cell-based. The settings on record: HCCLM7, 72 h.
Assay [3] relates to HEp-2. Briefly: Cell cycle arrest in Hep2 cells assessed as accumulation at G0/G1 phase at 4.7 uM after 24 hrs. It is filed as functional, Homo sapiens.
Assay [4] relates to HEp-2. Briefly: Cell cycle arrest in Hep2 cells assessed as accumulation at G2/M phase at 4.7 uM after 36 hrs. It is filed as functional, Homo sapiens.
In assay [5] the test system is HEp-2. Briefly: Cell cycle arrest in Hep2 cells assessed as accumulation at subG0 phase at 4.7 uM after 36 hrs. It is filed as functional, Homo sapiens.
The subject of assay [6] is HEp-2. Briefly: Cell cycle arrest in Hep2 cells assessed as accumulation at S phase at 4.7 uM after 24 hrs. The class given is functional, Homo sapiens.
In assay [7] the test system is HEp-2. The assay is described as follows: Cell cycle arrest in Hep2 cells assessed as accumulation at G0/G1 phase at 4.7 uM after 36 hrs. The class given is functional, Homo sapiens.
Assay [8] deals with HEp-2. The assay is described as follows: Cell cycle arrest in Hep2 cells assessed as accumulation at S phase at 4.7 uM after 36 hrs. The class given is functional, Homo sapiens.
Assay [9] has as its system HEp-2. The assay is described as follows: Cell cycle arrest in Hep2 cells assessed as accumulation at S phase at 4.7 uM after 48 hrs. The class given is functional, Homo sapiens.
Assay [10] has as its system HEp-2. The assay is described as follows: Cell cycle arrest in Hep2 cells assessed as accumulation at subG0 phase at 4.7 uM after 24 hrs. The class given is functional, Homo sapiens.
Assay [11] deals with HEp-2. Briefly: Cell cycle arrest in Hep2 cells assessed as accumulation at G0/G1 phase at 4.7 uM after 48 hrs. It is filed as functional, Homo sapiens.
In assay [12] the test system is HEp-2. The assay is described as follows: Cell cycle arrest in Hep2 cells assessed as accumulation at G2/M phase at 4.7 uM after 24 hrs. The class given is functional, Homo sapiens.
Assay [13] concerns HEp-2. Briefly: Cell cycle arrest in Hep2 cells assessed as accumulation at G2/M phase at 4.7 uM after 48 hrs. The class given is functional, cell-based, Homo sapiens.
The subject of assay [14] is HEp-2. The assay is described as follows: Cell cycle arrest in Hep2 cells assessed as accumulation at subG0 phase at 4.7 uM after 48 hrs. It is filed as functional, Homo sapiens.
Assay [15] deals with HEp-2. Briefly: Cell cycle arrest in Hep2 cells assessed as accumulation at S phase at 5.7 uM after 24 hrs. It is filed as functional, Homo sapiens.
Assay [16] concerns HEp-2. The assay is described as follows: Cell cycle arrest in Hep2 cells assessed as accumulation at […] phase at 5.7 uM after 36 hrs. It is filed as functional, Homo sapiens.
In assay [17] the test system is HEp-2. The assay is described as follows: Cell cycle arrest in Hep2 cells assessed as accumulation at S phase at 5.7 uM after 48 hrs. It is filed as functional, Homo sapiens.
For assay [18], the system named is HEp-2. Briefly: Cell cycle arrest in Hep2 cells assessed as accumulation at G0/G1 phase at 5.7 uM after 48 hrs. The class given is functional, Homo sapiens.
For assay [19], the system named is HEp-2. The assay is described as follows: Cell cycle arrest in Hep2 cells assessed as accumulation at […] phase at 5.7 uM after 48 hrs. The class given is functional, Homo sapiens.
The test system of assay [20] is HEp-2. The assay is described as follows: Cell cycle arrest in Hep2 cells assessed as accumulation at subG0 phase at 5.7 uM after 48 hrs. It is filed as functional, Homo sapiens.
Assay [21] deals with HEp-2. Briefly: Cell cycle arrest in Hep2 cells assessed as accumulation at S phase at 5.7 uM after 36 hrs. It is filed as functional, Homo sapiens.
Assay [22] relates to HEp-2. Briefly: Cell cycle arrest in Hep2 cells assessed as accumulation at G0/G1 phase at 5.7 uM after 36 hrs. The class given is functional, Homo sapiens.
Assay [23] relates to HEp-2. Briefly: Cell cycle arrest in Hep2 cells assessed as accumulation at subG0 phase at 5.7 uM after 36 hrs. The class given is functional, Homo sapiens.
In assay [24] the test system is HEp-2. The assay is described as follows: Cell cycle arrest in Hep2 cells assessed as accumulation at subG0 phase at 5.7 uM after 24 hrs. It is filed as functional, Homo sapiens.
The subject of assay [25] is HEp-2. Briefly: Cell cycle arrest in Hep2 cells assessed as accumulation at G0/G1 phase at 5.7 uM after 24 hrs. The class given is functional, Homo sapiens.
Assay [26] relates to HEp-2. Briefly: Cell cycle arrest in Hep2 cells assessed as accumulation at G2/M phase at 5.7 uM after 24 hrs. The class given is functional, Homo sapiens.

Molecules are shown by their SMILES.

Description for cells: Antiproliferative activity against human MDA-MB-435S cells after 72 hrs by MTT method

One may read the IC50 as the concentration at which inhibition is half-maximal. High values mean a need for much substance, low ones inhibition by little substance. Take `Cc1cc(C)nc(Sc2coc3ccccc3c2=O)n1`: the IC50 (in the assay with HEp-2 [1]; in the assay with SW480; in the assay “cells”; in assay [2]) was more than 50 µM throughout.
For `O=c1[nH]cc(F)c(=O)[nH]1` [FLUOROURACIL], the IC50 in the assay on HEp-2 [1] was found to be 129 µM; with SW480, 8.1 µM; in “cells” it was 14.5 µM; in assay [2], 18.6 µM.
Regarding `Nc1nnc(Sc2coc3ccccc3c2=O)s1`, the IC50 was 47.7 µM with HEp-2 [1], more than 50 µM with SW480, more than 50 µM in the assay “cells” and more than 50 µM in assay [2].
As to `O=c1c(Sc2nc3ccccc3s2)coc2ccccc12`, the IC50 is 31.3 µM in the assay on HEp-2 [1], 45.2 µM in the assay on SW480, 17.1 µM in “cells” and more than 50 µM in [2].
Consider `Cc1nnc(Sc2coc3ccccc3c2=O)s1`, for which the IC50 was 40.2 µM with HEp-2 [1], more than 50 µM in the assay on SW480, more than 50 µM in the assay “cells” and more than 50 µM in assay [2].
`O=C1/C(=C/N2CCN(c3ccccc3)CC2)Oc2ccccc21`: the IC50 in the assay on HEp-2 [1] came out at 27.7 µM; in the assay with SW480 it was 36.4 µM; in the assay “cells” it was 25.1 µM; in assay [2] it was 45.1 µM.
As for `Cc1nnc(Sc2coc3ccccc3c2=O)o1`, the IC50 (in the assay with HEp-2 [1]; in the assay with SW480; in the assay “cells”; in assay [2]) was more than 50 µM in each case.
Turning to `O=c1c(Sc2nc3ccccc3o2)coc2ccccc12`, the IC50 is 29.6 µM in the assay with HEp-2 [1], 36.4 µM with SW480, 26.1 µM in “cells” and more than 50 µM in assay [2].
As to `O=C1/C(=C/N2CCN(CC(c3ccc(F)cc3)c3ccc(F)cc3)CC2)Oc2ccccc21`, the IC50 in the assay with HEp-2 [1] stood at 4.7 µM; in the assay on SW480, 13.1 µM; in “cells”, 4.1 µM; in [2], 12.1 µM. Further, the Activity in the assay with HEp-2 [3] stood at 55.9%; with HEp-2 [4] it was 18.52%; in the assay on HEp-2 [5], 5.55%; in the assay on HEp-2 [6], 25.01%; in the assay with HEp-2 [7], 63.03%; in the assay on HEp-2 [8], 18.45%. Also, the Activity with HEp-2 [9] was found to be 20.89%; in the assay on HEp-2 [10], 0%; in the assay with HEp-2 [11], 73.71%; in the assay on HEp-2 [12], 19.09%; in the assay with HEp-2 [13] it was 5.41%; with HEp-2 [14], 16.46%.
For the compound `O=c1c(Sc2nc3ccccc3[nH]2)coc2ccccc12`, the IC50 in the assay with HEp-2 [1] is 42.6 µM; with SW480 it was more than 50 µM; in “cells” it was 30.3 µM; in assay [2], more than 50 µM.
For `O=C1/C(=C/N2CCCCC2)Oc2ccccc21`, the IC50 in the assay on HEp-2 [1] was more than 50 µM; in the assay on SW480, more than 50 µM; in the assay “cells” it was 47.8 µM; in assay [2], more than 50 µM.
Take `CN1CCN(/C=C2\Oc3ccccc3C2=O)C(c2ccccc2)C1` (stereo not given): the IC50 (in the assay with HEp-2 [1]; in the assay on SW480; in “cells”; in [2]) was more than 50 µM throughout.
Take `CN1CCN(/C=C2\Oc3ccccc3C2=O)CC1`: the IC50 was more than 50 µM with HEp-2 [1], more than 50 µM with SW480, 40.3 µM in “cells” and more than 50 µM in assay [2].
Take `O=C1/C(=C/N2CCN(Cc3ccccc3)CC2)Oc2ccccc21`: the Activity in the assay with HEp-2 [15] is 22.98%; with HEp-2 [16] it was 17.46%; in the assay on HEp-2 [17], 17.83%; in the assay with HEp-2 [18] it was 75.85%; with HEp-2 [19] it was 6.32%; with HEp-2 [20] it was 18.2%. The Activity in the assay on HEp-2 [21] turned out to be 23.84%; in the assay on HEp-2 [22] it was 58.7%; in the assay with HEp-2 [23], 4.93%; with HEp-2 [24] it was 4.69%; in the assay on HEp-2 [25], 44.87%; in the assay with HEp-2 [26], 32.14%. For the same compound, the IC50 was found to be 5.7 µM in the assay on HEp-2 [1], 6.6 µM in the assay on SW480, 7.6 µM in “cells” and 9.6 µM in assay [2].

These data come from ChEMBL document CHEMBL1149599, “Design, syntheses, and antitumor activity of novel chromone and aurone derivatives” (Bioorg Med Chem, 2007).
